Active and inactive are the calls of the source.
Experiments:
[1] = target: Voltage-dependent T-type calcium channel subunit alpha-1H (Homo sapiens, UniProt O95180); type: functional;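 note: channel activity triggered by adding a high calcium stimulation buffer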
[2] = target: T1, Short transient receptor potential channel 4 (Mus musculus, UniProt Q9QUQ5); assay: mouse TRPC4 channel inhibitors, dose response, cell-based, HEK293 TRPC4/mu-opioid, Fluo-4 calcium (AID 434942); type: functional;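 note: potency of inhibitors blocking the TRPC4 calcium response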
T1 sequence (Q9QUQ5 whole entry): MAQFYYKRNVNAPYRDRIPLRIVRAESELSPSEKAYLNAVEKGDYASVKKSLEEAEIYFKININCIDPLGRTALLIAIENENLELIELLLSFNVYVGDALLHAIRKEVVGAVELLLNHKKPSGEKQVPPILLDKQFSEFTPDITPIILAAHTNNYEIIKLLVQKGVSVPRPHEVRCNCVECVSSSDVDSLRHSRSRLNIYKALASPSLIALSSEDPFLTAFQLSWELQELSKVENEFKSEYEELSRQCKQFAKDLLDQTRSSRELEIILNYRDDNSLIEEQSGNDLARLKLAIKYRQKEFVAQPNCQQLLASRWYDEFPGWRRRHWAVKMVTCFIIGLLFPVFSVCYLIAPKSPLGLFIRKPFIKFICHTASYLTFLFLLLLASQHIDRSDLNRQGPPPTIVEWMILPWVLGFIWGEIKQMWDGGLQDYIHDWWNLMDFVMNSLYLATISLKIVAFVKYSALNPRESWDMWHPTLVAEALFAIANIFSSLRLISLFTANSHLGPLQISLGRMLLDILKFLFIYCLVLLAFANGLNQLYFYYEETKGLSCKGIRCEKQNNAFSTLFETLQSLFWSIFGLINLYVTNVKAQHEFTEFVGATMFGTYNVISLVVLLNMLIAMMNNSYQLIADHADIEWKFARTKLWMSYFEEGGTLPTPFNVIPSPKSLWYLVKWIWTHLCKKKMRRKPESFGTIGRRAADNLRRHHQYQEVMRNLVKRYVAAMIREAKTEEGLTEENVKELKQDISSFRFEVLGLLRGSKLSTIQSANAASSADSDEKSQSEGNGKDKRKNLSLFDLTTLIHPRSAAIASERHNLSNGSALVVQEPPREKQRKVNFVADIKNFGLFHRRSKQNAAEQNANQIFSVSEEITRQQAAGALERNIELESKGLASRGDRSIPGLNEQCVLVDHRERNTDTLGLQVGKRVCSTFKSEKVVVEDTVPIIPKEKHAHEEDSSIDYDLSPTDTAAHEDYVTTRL

[3] = target: T2, Carboxy-terminal domain RNA polymerase II polypeptide A small phosphatase 1 (Homo sapiens, UniProt Q9GZU7); assay: inhibitors of CTDSP1, concentration-response testing, biochemical assay, absorbance-based, actives from ultra-high-throughput screening (AID 540297); type: functional
T2 sequence (Q9GZU7 whole entry): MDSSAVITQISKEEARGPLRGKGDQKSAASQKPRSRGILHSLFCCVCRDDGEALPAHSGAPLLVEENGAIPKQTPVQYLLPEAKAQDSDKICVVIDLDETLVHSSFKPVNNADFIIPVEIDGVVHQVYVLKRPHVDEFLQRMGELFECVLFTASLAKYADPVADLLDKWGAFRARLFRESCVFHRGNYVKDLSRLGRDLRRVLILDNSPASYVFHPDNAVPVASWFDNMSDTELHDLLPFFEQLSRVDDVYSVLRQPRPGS

cells [4] = type: functional
[5] = growth suppression of PTEN-null colon cells, dose response, cell-based, HCT116 PTEN knockout (AID 1047); type: functional;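 note: HCT116 colon tumor cells with PTEN knocked out; cells exposed to compound for 60 hours before readout; potency for loss of cell viability measured by luminescence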
[6] = target: T3, Calpain-2 catalytic subunit (Sus scrofa, UniProt P43367); assay: pig calpain II inhibitor potency, dose response, biochemical, fluorogenic peptide substrate (AID 1420); type: functional
T3 sequence (P43367 whole entry): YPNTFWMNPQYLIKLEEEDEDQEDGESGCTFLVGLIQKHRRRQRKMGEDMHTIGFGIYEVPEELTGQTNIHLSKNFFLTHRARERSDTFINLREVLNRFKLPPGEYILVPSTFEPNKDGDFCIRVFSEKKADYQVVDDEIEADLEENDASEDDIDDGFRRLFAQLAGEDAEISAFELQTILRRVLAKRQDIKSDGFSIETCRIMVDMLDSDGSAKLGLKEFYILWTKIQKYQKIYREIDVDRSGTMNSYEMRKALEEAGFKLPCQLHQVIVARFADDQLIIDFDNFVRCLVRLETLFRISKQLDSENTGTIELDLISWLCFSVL

[7] = growth suppression of beta-catenin-knockout colon cells, dose response, cell-based, HCT116, human colon tumor (AID 1045); type: functional;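 note: HCT116 colon tumor cells with beta catenin knocked out; cells exposed to compound for 60 hours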
[8] = HEp-2 cell cytotoxicity, dose response, cytotoxicity control for RSV inhibitor project, HTS (AID 2410); type: functional; conditions: human respiratory syncytial virus
[9] = inhibitors of SNCA 5'UTR-driven reporter translation, confirmation, H4 neuroglioma cells, luminescence (AID 1988); type: functional, cell-based
cells [10] = type: functional, cell-based
[11] = Luminescence Cell-Based Dose Response HTS to Identify Inhibitors of 5'UTR Stem-Loop Driven Prion Protein mRNA Translation in H4 Neuroglioblastoma Cells. [Related pubchem assays: 1827 (Project Summary), 1813 (Primary HTS)]; type: functional
[12] = target: T4, Corticotropin-releasing factor receptor 2/Corticotropin-releasing factor-binding protein (Homo sapiens, UniProt P24387+Q13324); assay: Dose Response confirmation of uHTS hits for small molecule antagonists of the CRF-binding protein and CRF-R2 receptor complex.; type: functional; conditions: read-out: IC50_Mean
T4 sequence (Q13324 whole entry): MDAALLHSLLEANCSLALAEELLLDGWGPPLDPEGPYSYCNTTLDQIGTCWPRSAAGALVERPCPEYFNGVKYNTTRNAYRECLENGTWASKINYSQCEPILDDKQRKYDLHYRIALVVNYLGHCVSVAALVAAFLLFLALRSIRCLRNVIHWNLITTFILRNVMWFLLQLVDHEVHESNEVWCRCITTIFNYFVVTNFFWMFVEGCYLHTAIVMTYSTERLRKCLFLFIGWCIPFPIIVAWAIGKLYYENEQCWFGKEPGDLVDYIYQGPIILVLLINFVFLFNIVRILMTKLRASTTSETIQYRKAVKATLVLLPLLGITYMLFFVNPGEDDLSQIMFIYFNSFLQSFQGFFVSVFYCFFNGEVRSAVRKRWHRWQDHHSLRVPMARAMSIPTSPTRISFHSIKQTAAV
T4 sequence (P24387 whole entry): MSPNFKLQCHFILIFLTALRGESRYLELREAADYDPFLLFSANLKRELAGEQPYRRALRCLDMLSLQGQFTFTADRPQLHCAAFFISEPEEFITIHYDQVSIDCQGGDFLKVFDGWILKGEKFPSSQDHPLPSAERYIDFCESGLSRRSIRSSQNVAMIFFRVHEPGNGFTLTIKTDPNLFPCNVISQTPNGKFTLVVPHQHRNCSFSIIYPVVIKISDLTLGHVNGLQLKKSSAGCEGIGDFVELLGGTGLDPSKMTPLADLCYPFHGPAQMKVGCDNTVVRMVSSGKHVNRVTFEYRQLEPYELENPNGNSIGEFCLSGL

[13] = target: T4, Corticotropin-releasing factor receptor 2/Corticotropin-releasing factor-binding protein; assay: activators of CRF receptor 2 with binding protein – uHTS hits, confirmation (AID 602473); type: functional; conditions: read-out: EC50_Mean
[14] = inhibitors of firefly luciferase expression or activity, dose response, H4 neuroglioma cells, luminescence (AID 1990); type: functional, cell-based
cells [15] = type: functional, cell-based; remark: listed apart in the source
[16] = ZM109 Env clade C HIV-1 fusion inhibitors, dose response, HeLa effector, CEM target cells, luciferase, cherry-pick (AID 652058); type: functional, cell-based
[17] = C. albicans growth with fluconazole, confirmation, fluorescence, retest (AID 2467); type: functional, cell-based
[18] = Luminescence Cell-Based Dose Retest to Confirm Inhibitors of Cancer Stem Cells. [Related pubchem assays (depositor defined):AID2717, AID2721]; type: functional; conditions: Homo sapiens
Streptococcus = assay: Group A Streptococcus viability loss, dose response, counter-screen for streptokinase expression inhibitor project, luminescence, BacTiterGlo (AID 1915); type: functional, organism-based;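 note: potency for reduction of bacterial viability or growth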
[19] = test system: Streptococcus sp. 'group A'; assay: growth inhibition of control SK(-) GAS strain, dose response, counter-screen for streptokinase expression inhibitor project, luminescence, kanamycin, BacTiterGlo, confirmation (AID 1900); type: functional, organism-based
[20] = cytotoxicity toward NIH3T3 fibroblasts, dose response, counter-screen, cell-based, ATP luminescence, mouse fibroblasts (AID 2010); type: functional;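 note: cells exposed to compound for about 90 hours before reading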
[21] = NIH-3T3 fibroblast cytotoxicity, dose response, cytotoxicity control, cell-based, fluorescence, Alamar Blue, secondary assay (AID 2327); type: functional;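 note: NIH-3T3 mouse fibroblasts cultured with fluconazole at 8 µg/mL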
[22] = inhibitors of intracellular T. cruzi replication, confirmation, NIH3T3 host cells, beta-gal luminescence (AID 2044); type: functional, cell-based;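 note: intracellular parasites grown in NIH/3T3 mouse fibroblasts as host cells; luminescent beta-galactosidase reporter signal from transgenic T. cruzi replicating inside host cells; inhibitors lower the luminescence signal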

Sequence of Voltage-dependent T-type calcium channel subunit alpha-1H (O95180 whole entry): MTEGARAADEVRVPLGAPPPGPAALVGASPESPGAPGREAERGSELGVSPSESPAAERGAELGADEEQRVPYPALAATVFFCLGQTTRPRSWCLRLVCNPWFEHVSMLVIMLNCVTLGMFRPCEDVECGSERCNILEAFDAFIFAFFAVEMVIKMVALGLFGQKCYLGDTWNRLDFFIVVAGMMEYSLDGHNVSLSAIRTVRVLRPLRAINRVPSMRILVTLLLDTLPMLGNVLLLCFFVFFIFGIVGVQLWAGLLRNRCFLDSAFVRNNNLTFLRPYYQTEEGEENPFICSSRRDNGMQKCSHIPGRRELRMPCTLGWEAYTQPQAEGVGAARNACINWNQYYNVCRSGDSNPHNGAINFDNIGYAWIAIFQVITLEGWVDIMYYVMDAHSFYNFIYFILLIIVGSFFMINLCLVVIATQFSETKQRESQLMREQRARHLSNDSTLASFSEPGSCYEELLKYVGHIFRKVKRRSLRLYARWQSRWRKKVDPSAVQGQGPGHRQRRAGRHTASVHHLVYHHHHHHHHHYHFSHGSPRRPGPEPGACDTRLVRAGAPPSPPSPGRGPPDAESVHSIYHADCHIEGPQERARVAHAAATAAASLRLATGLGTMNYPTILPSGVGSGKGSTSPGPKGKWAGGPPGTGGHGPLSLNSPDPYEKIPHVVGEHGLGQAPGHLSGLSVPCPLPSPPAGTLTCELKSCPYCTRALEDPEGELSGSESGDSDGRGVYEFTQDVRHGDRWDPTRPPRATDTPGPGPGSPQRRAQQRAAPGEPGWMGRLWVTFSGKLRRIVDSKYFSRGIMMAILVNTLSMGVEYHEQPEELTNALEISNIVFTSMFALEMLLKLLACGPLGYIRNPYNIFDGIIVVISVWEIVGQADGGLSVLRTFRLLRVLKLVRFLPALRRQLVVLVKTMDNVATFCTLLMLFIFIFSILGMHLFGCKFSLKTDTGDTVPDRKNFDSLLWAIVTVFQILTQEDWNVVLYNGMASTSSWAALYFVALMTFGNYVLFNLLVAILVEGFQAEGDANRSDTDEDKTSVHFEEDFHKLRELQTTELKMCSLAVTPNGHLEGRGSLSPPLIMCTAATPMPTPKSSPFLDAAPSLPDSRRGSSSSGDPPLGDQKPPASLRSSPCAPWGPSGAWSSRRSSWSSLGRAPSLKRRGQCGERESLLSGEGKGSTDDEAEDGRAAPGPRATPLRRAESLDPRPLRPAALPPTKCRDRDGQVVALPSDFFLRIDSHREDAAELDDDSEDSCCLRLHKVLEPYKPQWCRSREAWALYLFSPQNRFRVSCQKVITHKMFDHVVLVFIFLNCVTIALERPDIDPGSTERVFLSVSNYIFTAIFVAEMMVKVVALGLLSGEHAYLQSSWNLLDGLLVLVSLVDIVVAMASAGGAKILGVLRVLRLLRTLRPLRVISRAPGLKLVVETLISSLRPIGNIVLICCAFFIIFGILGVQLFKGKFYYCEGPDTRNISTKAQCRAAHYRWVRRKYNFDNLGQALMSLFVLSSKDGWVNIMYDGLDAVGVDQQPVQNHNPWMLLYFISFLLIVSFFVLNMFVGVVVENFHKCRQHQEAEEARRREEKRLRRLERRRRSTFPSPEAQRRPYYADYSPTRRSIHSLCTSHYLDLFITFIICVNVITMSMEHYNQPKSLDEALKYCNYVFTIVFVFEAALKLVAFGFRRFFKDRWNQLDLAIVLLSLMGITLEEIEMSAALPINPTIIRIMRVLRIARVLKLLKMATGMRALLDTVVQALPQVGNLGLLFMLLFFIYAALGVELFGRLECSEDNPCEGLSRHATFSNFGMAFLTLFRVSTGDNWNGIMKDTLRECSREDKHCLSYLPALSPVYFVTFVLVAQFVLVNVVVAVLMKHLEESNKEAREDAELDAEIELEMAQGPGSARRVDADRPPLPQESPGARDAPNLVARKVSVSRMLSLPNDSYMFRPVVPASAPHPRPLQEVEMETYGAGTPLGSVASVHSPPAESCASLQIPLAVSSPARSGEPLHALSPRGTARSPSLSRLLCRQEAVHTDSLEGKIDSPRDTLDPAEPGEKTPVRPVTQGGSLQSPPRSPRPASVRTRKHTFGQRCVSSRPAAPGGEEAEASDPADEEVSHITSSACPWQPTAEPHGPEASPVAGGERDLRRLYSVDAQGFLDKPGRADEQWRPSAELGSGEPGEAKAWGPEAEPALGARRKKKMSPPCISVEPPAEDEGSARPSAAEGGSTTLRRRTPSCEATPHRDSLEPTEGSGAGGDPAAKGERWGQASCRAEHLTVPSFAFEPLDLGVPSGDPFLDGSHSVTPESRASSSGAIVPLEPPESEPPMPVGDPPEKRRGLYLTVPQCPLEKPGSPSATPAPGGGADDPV

c1ccc(-c2noc(CSc3nnc(Cc4cccs4)n3-c3ccccc3)n2)cc1
EC50 [1]: 4.16 µM (active)

Cc1ncsc1CCOC(=O)C12CC3CC(CC(C3)C1)C2
EC50 [2]: 5.31 µM (active)

Cc1ccc(NC(=O)c2cc(-c3ccc(C)c(C)c3O)n[nH]2)cc1C
IC50 [3]: 8.08 µM (active)

COc1ccc(O)c(C(=O)c2cnc3c(c2)c(=O)[nH]c(=O)n3C)c1
EC50 [2]: 1.5 µM (active)

O=C(c1cc2sccc2n1Cc1ccccc1)N1CCCc2ccccc21
EC50 [1]: 5.98 µM (active)

O=C(OCCCCN1C(=O)c2ccccc2C1=O)c1ccc(Br)o1
IC50 (cells [4]): 46.8 µM (active)

Cc1ccccc1Cn1c(=O)n(CC2CCC(C(=O)NCCc3ccccc3)CC2)c(=O)c2ccccc21 (centres undefined)
EC50 [5]: 13.3 µM (active)
IC50 [6]: 20.7 µM (not active)
EC50 [7]: 17 µM (active)

CC1CC(C)CN(C(=O)Cn2c(=O)n(CCCCC(=O)NCc3ccco3)c(=O)c3ccccc32)C1 (centres undefined)
IC50 [6]: > 50 µM (not active)

CCCc1nc2ccccc2n1CCOc1ccccc1
EC50 [1]: 8.61 µM (active)

COc1cccc(Nc2nc(N)c([N+](=O)[O-])c(NCc3ccco3)n2)c1
CC50 [8]: 15.8 µM (active)
IC50 [6]: 7.89 µM (not active)

CCN(CC)CCOC(=O)C(Cc1ccco1)Cc1cccc2ccccc12 (centres undefined)
EC50 [9]: > 120 µM (not active)
EC50 (cells [10]): > 350 µM (not active)
EC50 [11]: > 120 µM (not active)
IC50 [12]: > 47.1 µM (inactive)
EC50 [13]: > 53 µM (inactive)
EC50 [14]: > 120 µM (not active)
EC50 (cells [15]): > 350 µM (not active)

C#CCSc1nnc(-c2ccc([N+](=O)[O-])cc2)o1
IC50 (cells [4]): 9.4 µM (active)

Cc1cc(=O)oc2cc(NC(=O)c3ccc(OC(F)F)cc3)ccc12
IC50 [3]: 10.2 µM (active)

O=C(Nc1nc2ccccc2n1CCN1CCCC1)c1ccc(Cl)cc1
IC50 (cells [4]): 25.4 µM (active)

O=C(OCCCOC(=O)c1ccc([N+](=O)[O-])o1)c1ccc([N+](=O)[O-])o1
IC50 (cells [4]): < 0.1 µM (active)

Cn1nnnc1SCCNCc1ccccc1OCc1ccc(Cl)cc1
EC50 [2]: 1.33 µM (active)

N#CC(c1cccc(C(F)(F)F)c1)(c1ncc(C(F)(F)F)cc1Cl)N1CCOCC1 (centres undefined)
EC50 [1]: 2.49 µM (active)

O=C(CN1CCCCCCC1)Nc1ccc(Cl)cc1Cl
IC50 [6]: 4.92 µM (not active)

Cc1cc(OCc2cc(C(=O)NCC3(C)COC3)no2)cc(C)c1Cl
EC50 [2]: 2.37 µM (active)

Cc1ccc2c(c1)N(C(=O)CCC(=O)Nc1ccccc1Br)CC(C)O2 (centres undefined)
EC50 [2]: 1.68 µM (active)

COc1ccc(C(=O)OCC(=O)NCc2ccco2)cc1OC
IC50 [3]: 9.73 µM (active)

Cc1cc(Br)c(NC(=O)CN(C)CCOc2ccccc2)c(Br)c1
EC50 [2]: 5.96 µM (active)

C=CCOc1ccc(Br)cc1CNC(C)(C)CO
EC50 [2]: 3.76 µM (active)

CN1/C(=C\C(=O)COC(=O)C2COc3ccccc3O2)C(C)(C)c2ccccc21 (centres undefined)
IC50 (cells [4]): 48.2 µM (active)

CCOc1cc(CNCc2cccs2)ccc1OCC(=O)NC(C)(C)C
EC50 [2]: 2.11 µM (active)

CCc1ccc(NC(=O)C(=O)NNC(=O)COc2cccc(OC)c2)cc1
IC50 (cells [4]): 5.58 µM (active)

O=C(C[C@H]1C[C@@H]2c3cc(NC(=O)Nc4ccc(F)cc4)ccc3O[C@@H]2[C@@H](CO)O1)NCC1CC1
AC50 [16]: 41.4 µM (active)

Cc1[nH]n(S(=O)(=O)Cc2ccccc2)c(=O)c1N=Nc1ccccc1Cl
IC50 (cells [4]): 8.42 µM (active)

Cc1cc(SCC(=O)N/N=C/c2ccc(O)cc2O)c(C)cc1Br
EC50 [9]: 5.74 µM (active)
EC50 (cells [10]): 13.4 µM (active)
EC50 [17]: 3.06 µM (active)
EC50 [11]: 9.19 µM (active)
AC50 [18]: 4.49 µM (active)
EC50 (Streptococcus): 2.57 µM (active)
EC50 [19]: 2.46 µM (active)
EC50 [20]: > 60 µM (inconclusive)
EC50 [21]: > 160 µM (inactive)
EC50 [14]: 5.85 µM (active)
EC50 (cells [15]): > 350 µM (not active)
EC50 [22]: 0.687 µM (active)

Source: ChEMBL document CHEMBL1201862, “PubChem BioAssay data set” (2004)
